One test has as its target T1, K-RAS G12C (Homo sapiens, UniProt P01116, G12C).
T1 construct: His tag; purchased Stratech
In words: Compound depletion assay, K-RAS G12C. The test is classed as binding. Particulars: G12C protein 20 μM, compound 8 μM, 25° C. The method, then: (§1) Compound Depletion Assay Method
(§2) Lyophilized human K-RAS (12 Cys) protein (His tag) and human K-RAS (12 Asp) protein (His tag) were purchased from Stratech and reconstituted at 30 μM in water. The protein concentration of K-RAS G12C and K-RAS G12D was adjusted to 20 μM in K-RAS Assay Buffer (20 mM HEPES pH 7.5, 150 mM NaCl, 1 mM MgCl2). A 49 μl aliquot of protein solution was transferred to 1.5 ml eppendorfs and incubated at room temperature for 10 minutes. A 1 μl aliquot of compound solution in DMSO was added to the protein solutions in the 1.5 ml eppendorfs to initiate the reaction, with a final assay compound concentration of 8 μM. Reactions were agitated at 25° C., 700 rpm. At each time point (0, 30, 180, 360, 1440 minutes), 10 μl of the reaction mixture was removed, added to 30 μl quench solution (0.3% formic acid, 75 nM propranolol in acetonitrile) to stop the reaction and stored at 4° C. Once all reactions were quenched, the samples were centrifuged at 16000 g for 10 minutes to pellet the protein and salts. A 10 μl aliquot of supernatant containing compound was diluted in 50:50 acetonitrile:H2O in a 96 well plate. The plates were heat sealed and the samples analysed by LC-MS/MS to determine the concentration of compound remaining in the samples. To determine the reaction progress, the compound signal was normalized to the internal standard signal (propranolol). The decrease in free compound concentration is shown as a percentage over time, with the […] at time zero fixed at one hundred percent. Compound is assumed to be completely depleted when no longer detectable with a double blank sample as reference.

The next test addresses T2, K-RAS G12D (Homo sapiens, UniProt P01116, G12D).
T2 construct: His tag; purchased Stratech
As to the kind of experiment: Compound depletion assay, K-RAS G12D. Particulars: G12D protein 20 μM, compound 8 μM, 25° C. The test is classed as binding. As for the experimental part: as §1, §2

The structures appear in SMILES notation.

T2 sequence (P01116 1-188 isoform P01116-2 G12D): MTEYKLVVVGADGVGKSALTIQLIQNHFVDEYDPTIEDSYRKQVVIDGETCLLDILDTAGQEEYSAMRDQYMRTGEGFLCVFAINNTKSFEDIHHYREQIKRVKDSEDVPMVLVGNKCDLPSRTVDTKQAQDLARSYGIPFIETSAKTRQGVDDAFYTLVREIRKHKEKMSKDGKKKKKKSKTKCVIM
T1 sequence (P01116 1-188 isoform P01116-2 G12C): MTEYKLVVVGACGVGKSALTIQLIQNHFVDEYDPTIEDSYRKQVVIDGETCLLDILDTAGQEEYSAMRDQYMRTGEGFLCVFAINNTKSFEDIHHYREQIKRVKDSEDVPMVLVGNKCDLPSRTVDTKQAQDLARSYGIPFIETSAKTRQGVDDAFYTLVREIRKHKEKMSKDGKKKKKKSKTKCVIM

Take `C=CC(=O)N1CCN(c2cc(C(=O)Nc3cccc4ccccc34)nc(-c3cnn(C)c3)n2)CC1` [Example 10, 2-(1-methylpyrazol-4-yl)-N-(1-naphthyl)-6-(4-prop-2-enoylpiperazin-1-yl)pyrimidine-4-carboxamide]: on K-RAS G12C, the “3 hr Category (compound remaining at timepoint)” value is on record as “A (≥70% compound remaining at timepoint)” and the “24 hr Category (compound remaining at timepoint)” value is given as “A (≥70% compound remaining at timepoint)”. In addition, at K-RAS G12D, the “3 hr Category (compound remaining at timepoint)” value is given as “A (≥70% compound remaining at timepoint)” and the “24 hr Category (compound remaining at timepoint)” value is reported as “A (≥70% compound remaining at timepoint)”.
As for `C=CC(=O)N1CCN(c2cc(C(=O)Nc3cccc4ccccc34)nc(-c3ccnn3C)n2)CC1` [Example 11, 2-(2-methylpyrazol-3-yl)-N-(1-naphthyl)-6-(4-prop-2-enoylpiperazin-1-yl)pyrimidine-4-carboxamide], the “30 min Category (compound remaining at timepoint)” value on K-RAS G12C (30 min) was “A (≥70% compound remaining at timepoint)”. In addition, on K-RAS G12C, the “3 hr Category (compound remaining at timepoint)” value is “A (≥70% compound remaining at timepoint)” and the “24 hr Category (compound remaining at timepoint)” value was “A (≥70% compound remaining at timepoint)”. On K-RAS G12D, the “3 hr Category (compound remaining at timepoint)” value was “A (≥70% compound remaining at timepoint)” and the “24 hr Category (compound remaining at timepoint)” value is recorded as “A (≥70% compound remaining at timepoint)”.
Regarding `C=CC(=O)N1CCN(c2cc(NC(=O)c3cccc4ccccc34)nc(N3CCN(C)CC3)n2)CC1` [Example 12, N-[2-(4-methylpiperazin-1-yl)-6-(4-prop-2-enoylpiperazin-1-yl)pyrimidin-4-yl]naphthalene-1-carboxamide], on K-RAS G12C, the “3 hr Category (compound remaining at timepoint)” value is “A (≥70% compound remaining at timepoint)” and the “24 hr Category (compound remaining at timepoint)” value is on record as “A (≥70% compound remaining at timepoint)”. Moreover, on K-RAS G12D, the “3 hr Category (compound remaining at timepoint)” value was “A (≥70% compound remaining at timepoint)” and the “24 hr Category (compound remaining at timepoint)” value is “A (≥70% compound remaining at timepoint)”.
Consider `C=CC(=O)N1CCN(c2cc(C(=O)N(C)c3cccc4ccccc34)nc(OC[C@@H]3CCCN3C)n2)CC1` [Example 13, N-methyl-2-[[(2S)-1-methylpyrrolidin-2-yl]methoxy]-N-(1-naphthyl)-6-(4-prop-2-enoylpiperazin-1-yl)pyrimidine-4-carboxamide], for which, at K-RAS G12C, the “3 hr Category (compound remaining at timepoint)” value is listed as “A (≥70% compound remaining at timepoint)” and the “24 hr Category (compound remaining at timepoint)” value is listed as “A (≥70% compound remaining at timepoint)”. In addition, on K-RAS G12D, the “3 hr Category (compound remaining at timepoint)” value is on record as “A (≥70% compound remaining at timepoint)” and the “24 hr Category (compound remaining at timepoint)” value was “A (≥70% compound remaining at timepoint)”.
Turning to `C=CC(=O)N1CCN(c2cc(C(=O)NCc3ccccc3)nc(OC[C@@H]3CCCN3C)n2)CC1` [Example 14, N-benzyl-2-[[(2S)-1-methylpyrrolidin-2-yl]methoxy]-6-(4-prop-2-enoylpiperazin-1-yl)pyrimidine-4-carboxamide], on K-RAS G12C, the “3 hr Category (compound remaining at timepoint)” value is on record as “A (≥70% compound remaining at timepoint)” and the “24 hr Category (compound remaining at timepoint)” value is reported as “A (≥70% compound remaining at timepoint)”. For the same molecule, on K-RAS G12D, the “3 hr Category (compound remaining at timepoint)” value is reported as “A (≥70% compound remaining at timepoint)” and the “24 hr Category (compound remaining at timepoint)” value is on record as “A (≥70% compound remaining at timepoint)”.
As for `C=CC(=O)N1CCN(c2cc(C(=O)N3c4ccccc4CCC3C)nc(OC[C@@H]3CCCN3C)n2)CC1` (stereo partly drawn) [Example 15, 1-[4-[6-(2-methyl-3,4-dihydro-2H-quinoline-1-carbonyl)-2-[[(2S)-1-methylpyrrolidin-2-yl]methoxy]pyrimidin-4-yl]piperazin-1-yl]prop-2-en-1-one], the “3 hr Category (compound remaining at timepoint)” value at K-RAS G12C and at K-RAS G12D was “A (≥70% compound remaining at timepoint)” throughout. The “24 hr Category (compound remaining at timepoint)” value at K-RAS G12C and at K-RAS G12D was “A (≥70% compound remaining at timepoint)” in each case.
For the molecule `C=CC(=O)N1CCN(c2cc(C(=O)N3CCOc4ccccc43)nc(OC[C@@H]3CCCN3C)n2)CC1` [Example 16, 1-[4-[6-(2,3-dihydro-1,4-benzoxazine-4-carbonyl)-2-[[(2S)-1-methylpyrrolidin-2-yl]methoxy]pyrimidin-4-yl]piperazin-1-yl]prop-2-en-1-one], on K-RAS G12C, the “3 hr Category (compound remaining at timepoint)” value is on record as “A (≥70% compound remaining at timepoint)” and the “24 hr Category (compound remaining at timepoint)” value is on record as “A (≥70% compound remaining at timepoint)”. Besides, at K-RAS G12D, the “3 hr Category (compound remaining at timepoint)” value is “A (≥70% compound remaining at timepoint)” and the “24 hr Category (compound remaining at timepoint)” value is “A (≥70% compound remaining at timepoint)”.
In the case of `C=CC(=O)N1CCN(c2cc(C(=O)N3CCCc4cccc(C)c43)nc(OC[C@@H]3CCCN3C)n2)CC1` [Example 17, 1-[4-[6-(8-methyl-3,4-dihydro-2H-quinoline-1-carbonyl)-2-[[(2S)-1-methylpyrrolidin-2-yl]methoxy]pyrimidin-4-yl]piperazin-1-yl]prop-2-en-1-one], the “3 hr Category (compound remaining at timepoint)” value at K-RAS G12C and on K-RAS G12D was “A (≥70% compound remaining at timepoint)” in each case. Besides, the “24 hr Category (compound remaining at timepoint)” value at K-RAS G12C and on K-RAS G12D was “A (≥70% compound remaining at timepoint)” throughout.
For the molecule `C=CC(=O)N1CCN(c2cc(C(=O)Nc3ccccc3)nc(OC[C@@H]3CCCN3C)n2)CC1` [Example 18, 2-[[(2S)-1-methylpyrrolidin-2-yl]methoxy]-N-phenyl-6-(4-prop-2-enoylpiperazin-1-yl)pyrimidine-4-carboxamide], on K-RAS G12C, the “3 hr Category (compound remaining at timepoint)” value is “A (≥70% compound remaining at timepoint)” and the “24 hr Category (compound remaining at timepoint)” value is given as “A (≥70% compound remaining at timepoint)”. On K-RAS G12D, the “3 hr Category (compound remaining at timepoint)” value is listed as “A (≥70% compound remaining at timepoint)” and the “24 hr Category (compound remaining at timepoint)” value is “A (≥70% compound remaining at timepoint)”.
Regarding `C=CC(=O)N1CCN(c2cc(C(=O)Nc3c(C)ccc4ncccc34)nc(OC[C@@H]3CCCN3C)n2)CC1` [Example 19, 2-[[(2S)-1-methylpyrrolidin-2-yl]methoxy]-N-(6-methyl-5-quinolyl)-6-(4-prop-2-enoylpiperazin-1-yl)pyrimidine-4-carboxamide], the “3 hr Category (compound remaining at timepoint)” value at K-RAS G12C and on K-RAS G12D was “A (≥70% compound remaining at timepoint)” each time. Besides, the “24 hr Category (compound remaining at timepoint)” value on K-RAS G12C and on K-RAS G12D was “A (≥70% compound remaining at timepoint)” throughout.
Take `C=CC(=O)N1CCN(c2cc(C(=O)Nc3cccc4ccccc34)nc(N3CCN(C)CC3)n2)CC1` [Example 20, 2-(4-methylpiperazin-1-yl)-N-(1-naphthyl)-6-(4-prop-2-enoylpiperazin-1-yl)pyrimidine-4-carboxamide]: the “3 hr Category (compound remaining at timepoint)” value on K-RAS G12C and on K-RAS G12D was “A (≥70% compound remaining at timepoint)” in each case. In addition, the “24 hr Category (compound remaining at timepoint)” value at K-RAS G12C and at K-RAS G12D was “A (≥70% compound remaining at timepoint)” in each case.
As to `C=CC(=O)N1CCN(c2cc(C(=O)Nc3cccc4ccccc34)nc(N(C)CCN(C)C)n2)CC1` [Example 21, 2-[2-(dimethylamino)ethyl-methyl-amino]-N-(1-naphthyl)-6-(4-prop-2-enoylpiperazin-1-yl)pyrimidine-4-carboxamide], on K-RAS G12C, the “3 hr Category (compound remaining at timepoint)” value is on record as “A (≥70% compound remaining at timepoint)” and the “24 hr Category (compound remaining at timepoint)” value is “A (≥70% compound remaining at timepoint)”. Further, at K-RAS G12D, the “3 hr Category (compound remaining at timepoint)” value is recorded as “A (≥70% compound remaining at timepoint)” and the “24 hr Category (compound remaining at timepoint)” value is “A (≥70% compound remaining at timepoint)”.
Regarding `C=CC(=O)N1CCN(c2cc(C(=O)Nc3cccc4[nH]ncc34)nc(OC[C@@H]3CCCN3C)n2)CC1` [Example 22, N-(1H-indazol-4-yl)-2-[[(2S)-1-methylpyrrolidin-2-yl]methoxy]-6-(4-prop-2-enoylpiperazin-1-yl)pyrimidine-4-carboxamide], the “3 hr Category (compound remaining at timepoint)” value at K-RAS G12C and on K-RAS G12D was “A (≥70% compound remaining at timepoint)” in each case. Also, the “24 hr Category (compound remaining at timepoint)” value at K-RAS G12C and on K-RAS G12D was “A (≥70% compound remaining at timepoint)” each time.
